Columns and labels:
Format in all cases: biochemical
CDK1:Cyclin-B = target: T1, CDK1:Cyclin-B (Homo sapiens, UniProt P06493); assay: CDK1 Screening Assay; settings: Table 1; read-out: CDK1 IC50
T1 construct: purchased New England Biolabs 6020; host or cells: insect cells
Procedure: (§1) 70 μL of the kinase reaction mixture was dispensed into the well of a streptavidin coated FlashPlate™ (Cat. # SMP103, NEN, Boston, Mass.). Then 1 μL of test compound stock in 100% DMSO was added to the wells resulting in a final concentration of 1% DMSO in the reaction with a 100 μl final reaction volume. Next, CDK1:Cyclin-B protein was diluted in 50 mM Tris-HCl pH=8.0, 0.1% BSA at a concentration of 1 ng per μL and 30 μl (30 ng enzyme per test well) was added to each well to initiate the reaction. The reaction was incubated for one hour at 30° C. At the end of the 1-hour incubation, the reaction was terminated by aspirating the reaction mixture from the plate and washing the wells twice with PBS containing 100 mM EDTA. The histone-H1 biotinylated peptide substrate became immobilized on the Flashplate™ and the incorporation of ^33P-γ-ATP was measured by reading the plate on a scintillation counter. Inhibition of the enzymatic activity of CDK1 was measured by observing a reduced amount of ^33P-γ-ATP incorporated into the immobilized peptide.
Assays to test compound inhibition of other kinases were preformed using methods that measure the amount of phosphorylation of a biotinylated peptide substrate. Biotinylated peptide substrates were selected from the literature as appropriate for the enzyme being evaluated. […] Assay conditions vary slightly for each protein kinase, for example, insulin receptor kinase requires 10 mM MnCl2 for activity and Calmodulin-dependent protein kinase requires calmodulin and 10 mM CaCl2. These assay conditions are known in the art. The reaction mixture was dispensed into the wells of a streptavidin coated Flashplate and 1 μl drug stock in 100% DMSO was added to a 100 μl reaction volume resulting in a final concentration of 1% DMSO on the reaction. Enzyme was diluted in 50 mM Tris-HCl pH=8.0, 0.1% BSA and add to each well. The reaction was incubated for one hour at 30° C. in the presence of compound. After one hour the reaction mix was aspirated from the plate and the plate was washed with PBS containing 100 mM EDTA. The plate was read on a scintillation counter to determine ^33P-γ-ATP incorporated into the immobilized peptide. Test compounds were assayed in duplicate at 8 concentrations [100 uM, 10 uM, 1 uM, 100 nM, 10 nM, 1 nM, 100 pM, 10 pM]. A maximum and minimum signal for the assay was determined on each plate. The IC50 was calculated from the dose response curve of the percent inhibition of the maximum signal in the assay according to the formula [max signal—background/test compound signal—background (100)=% inhibition] by graphing the percent inhibition against the log concentration of test compound. Known inhibitor compounds appropriate for the kinase being assayed were also included on each plate. […]

[1] = target: T2, HER2 (human epidermal growth factor receptor-2) (Homo sapiens, UniProt P04626); assay: Kinase Selectivity Assay HER2; settings: Table 1; read-out: HER2 IC50
T2 construct: begins at amino acid 676 followed by the remainder of the HER2 cytoplasmic domain; polyhistidine (N)
T2 sequence (P04626 676-1255 limits assumed): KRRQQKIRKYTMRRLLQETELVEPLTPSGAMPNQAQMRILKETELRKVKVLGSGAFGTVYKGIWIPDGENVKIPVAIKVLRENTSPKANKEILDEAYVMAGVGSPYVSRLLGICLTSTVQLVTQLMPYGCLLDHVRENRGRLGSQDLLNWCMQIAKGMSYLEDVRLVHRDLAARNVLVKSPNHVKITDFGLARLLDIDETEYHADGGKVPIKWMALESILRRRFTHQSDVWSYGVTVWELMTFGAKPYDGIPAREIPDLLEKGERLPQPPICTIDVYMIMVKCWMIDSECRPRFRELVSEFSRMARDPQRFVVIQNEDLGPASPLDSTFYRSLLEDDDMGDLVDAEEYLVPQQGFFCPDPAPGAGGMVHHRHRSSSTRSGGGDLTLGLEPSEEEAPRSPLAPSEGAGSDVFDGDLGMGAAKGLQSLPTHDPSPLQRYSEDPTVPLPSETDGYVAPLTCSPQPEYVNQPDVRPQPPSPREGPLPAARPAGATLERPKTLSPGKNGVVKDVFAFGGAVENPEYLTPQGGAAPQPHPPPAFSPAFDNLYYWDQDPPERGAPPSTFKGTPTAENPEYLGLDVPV
Procedure: (§2) Assays to test compound inhibition of other kinases were preformed using methods that measure the amount of phosphorylation of a biotinylated peptide substrate. Biotinylated peptide substrates were selected from the literature as appropriate for the enzyme being evaluated. […] Assay conditions vary slightly for each protein kinase, for example, insulin receptor kinase requires 10 mM MnCl2 for activity and Calmodulin-dependent protein kinase requires calmodulin and 10 mM CaCl2. These assay conditions are known in the art. The reaction mixture was dispensed into the wells of a streptavidin coated Flashplate and 1 μl drug stock in 100% DMSO was added to a 100 μl reaction volume resulting in a final concentration of 1% DMSO on the reaction. Enzyme was diluted in 50 mM Tris-HCl pH=8.0, 0.1% BSA and add to each well. The reaction was incubated for one hour at 30° C. in the presence of compound. After one hour the reaction mix was aspirated from the plate and the plate was washed with PBS containing 100 mM EDTA. The plate was read on a scintillation counter to determine ^33P-γ-ATP incorporated into the immobilized peptide. Test compounds were assayed in duplicate at 8 concentrations [100 uM, 10 uM, 1 uM, 100 nM, 10 nM, 1 nM, 100 pM, 10 pM]. A maximum and minimum signal for the assay was determined on each plate. The IC50 was calculated from the dose response curve of the percent inhibition of the maximum signal in the assay according to the formula [max signal—background/test compound signal—background (100)=% inhibition] by graphing the percent inhibition against the log concentration of test compound. Known inhibitor compounds appropriate for the kinase being assayed were also included on each plate.
(§3) CDK2 in complex with cyclin A is commercially available (Upstate Biotech, Lake Placid, N.Y.). The CDK4 complex was composed of a mouse CDK4 protein and a mouse Cyclin D1 protein (The mouse CDK4 protein was genetically fused to an N-terminal Flag-epitope tag and the mouse Cyclin D1 protein was fused with an N-terminal AU-1 epitope tag. The genes encoding these proteins were transferred to commercially available baculoviral vectors. The recombinant CDK4/D1 complex was then made by co-infecting commercially available insect cells with viruses carrying these two constructs). […] ERK-1 protein (Discontinued from Calbiochem). EGFR (epidermal growth factor receptor) is purified from human A431 cell membranes (Sigma, St. Louis, Mo., Cat.# E3641).

[2] = target: T3, VEGF-R (vascular endothelial growth factor receptor-2) (Rattus norvegicus, UniProt O08775); assay: VEGF-R Screening Assay; settings: Table 1; read-out: VEGF-R IC50
T3 construct: polyhistidine (6xHIS) (N)
T3 sequence (O08775 786-1343): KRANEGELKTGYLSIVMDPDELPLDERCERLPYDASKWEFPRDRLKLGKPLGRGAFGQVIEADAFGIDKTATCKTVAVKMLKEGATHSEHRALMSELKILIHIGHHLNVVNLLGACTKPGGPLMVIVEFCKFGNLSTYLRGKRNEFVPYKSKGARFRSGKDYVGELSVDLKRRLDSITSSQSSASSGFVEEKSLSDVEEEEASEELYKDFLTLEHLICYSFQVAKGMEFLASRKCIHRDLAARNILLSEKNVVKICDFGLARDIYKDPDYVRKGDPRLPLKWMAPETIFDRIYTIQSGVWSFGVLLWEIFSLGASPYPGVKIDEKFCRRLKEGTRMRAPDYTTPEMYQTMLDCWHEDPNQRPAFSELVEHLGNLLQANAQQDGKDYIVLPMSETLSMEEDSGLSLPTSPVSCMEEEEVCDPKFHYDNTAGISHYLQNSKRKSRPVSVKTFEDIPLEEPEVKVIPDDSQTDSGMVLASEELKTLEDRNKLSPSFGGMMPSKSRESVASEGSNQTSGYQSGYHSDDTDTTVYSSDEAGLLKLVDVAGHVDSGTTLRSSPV
Procedure: as §1, with “a 100 μL final reaction” for “a 100 μl final reaction”, “volume. Next, soluble rat tyrosine kinase containing an N-terminal 6×HIS tag was diluted” for “volume. Next, CDK1:Cyclin-B protein was diluted”, “concentration of 5 ng per” for “concentration of 1 ng per”, “and 30 μL (150 ng enzyme” for “and 30 μl (30 ng enzyme”, “EDTA. The PLC1 biotinylated peptide” for “EDTA. The histone-H1 biotinylated peptide”, “activity of the VEGF-R was measured” for “activity of CDK1 was measured”
as §2, §3

T1 sequence (P06493 whole entry): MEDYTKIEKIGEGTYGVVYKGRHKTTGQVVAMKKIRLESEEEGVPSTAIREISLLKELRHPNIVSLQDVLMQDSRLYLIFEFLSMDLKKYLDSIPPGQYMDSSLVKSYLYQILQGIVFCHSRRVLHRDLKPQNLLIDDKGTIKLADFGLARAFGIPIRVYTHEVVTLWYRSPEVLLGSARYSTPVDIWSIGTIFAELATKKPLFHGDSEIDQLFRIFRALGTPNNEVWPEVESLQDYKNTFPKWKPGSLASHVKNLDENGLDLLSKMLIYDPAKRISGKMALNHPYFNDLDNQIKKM
T1 sequence (P14635 whole entry partner): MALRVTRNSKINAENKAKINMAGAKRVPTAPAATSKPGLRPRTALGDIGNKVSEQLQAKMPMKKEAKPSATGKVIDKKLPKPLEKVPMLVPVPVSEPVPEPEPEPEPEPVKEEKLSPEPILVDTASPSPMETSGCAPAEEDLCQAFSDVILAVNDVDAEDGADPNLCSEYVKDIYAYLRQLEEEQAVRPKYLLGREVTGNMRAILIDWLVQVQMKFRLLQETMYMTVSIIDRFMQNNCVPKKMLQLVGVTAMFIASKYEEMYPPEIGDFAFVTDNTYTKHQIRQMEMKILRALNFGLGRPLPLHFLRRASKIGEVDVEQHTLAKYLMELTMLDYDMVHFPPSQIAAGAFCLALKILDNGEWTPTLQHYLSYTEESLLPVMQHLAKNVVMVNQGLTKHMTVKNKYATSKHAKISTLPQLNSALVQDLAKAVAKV

| Structure (SMILES) | IC50 (CDK1:Cyclin-B) | IC50 [1] | IC50 [2] |
| --- | --- | --- | --- |
| Nc1nc(Nc2ccc(S(N)(=O)=O)cc2)nn1C(=O)c1cccnc1 [Cpd 28, 4-[[5-amino-1-(3-pyridinylcarbonyl)-1H-1,2,4-triazol-3-yl]amino]-benzenesulfonamide] | 982 nM | – | 13200 nM |
| Nc1nc(Nc2ccc(S(N)(=O)=O)cc2)nn1C(=O)c1c(Cl)cc(Cl)cc1Cl [Cpd 8, 4-[[5-amino-1-(2,4,6-trichlorobenzoyl)-1H-1,2,4-triazol-3-yl]amino]-benzenesulfonamide] | 136 nM | – | > 100000 nM |
| Nc1nc(Nc2ccc(S(N)(=O)=O)cc2)nn1C(=O)/C=C/c1c(F)cccc1F [Cpd 44, 4-[[5-amino-1-[(2E)-3-(2,6-difluorophenyl)-1-oxo-2-propenyl]-1H-1,2,4-triazol-3-yl]amino]-benzenesulfonamide] | 522 nM | – | 2680 nM |
| Nc1nc(Nc2ccc(S(N)(=O)=O)cc2)nn1C(=O)c1cc2ccccc2s1 [Cpd 31, 4-[[5-amino-1-(benzo[b]thien-2-ylcarbonyl)-1H-1,2,4-triazol-3-yl]amino]-benzenesulfonamide] | 30 nM | – | 44 nM |
| Nc1nc(Nc2ccc(S(N)(=O)=O)cc2)nn1C(=O)c1ccc(F)cc1F [Cpd 5, 4-[[5-amino-1-(2,4-difluorobenzoyl)-1H-1,2,4-triazol-3-yl]amino]-benzenesulfonamide] | 144 nM | – | 521 nM |
| Nc1nc(Nc2ccc(S(N)(=O)=O)cc2)nn1C(=O)c1c(F)ccc(F)c1F [Cpd 3, 4-[[5-amino-1-(2,3,6-trifluorobenzoyl)-1H-1,2,4-triazol-3-yl]amino]-benzenesulfonamide] | 8 nM | – | 332 nM |
| Nc1nc(Nc2ccc(S(N)(=O)=O)cc2)nn1C(=O)c1ccno1 [Cpd 26, 4-[[5-amino-1-(5-isoxazolylcarbonyl)-1H-1,2,4-triazol-3-yl]amino]-benzenesulfonamide] | 18400 nM | – | ~100000 nM |
| Nc1nc(Nc2ccc(S(N)(=O)=O)cc2)nn1C(=O)c1ccccc1 [Cpd 12, 4-[(5-amino-1-benzoyl-1H-1,2,4-triazol-3-yl)amino]-benzenesulfonamide] | 45.4 nM | – | 84.1 nM |
| Nc1nc(Nc2ccc(S(N)(=O)=O)cc2)nn1C(=O)c1ccco1 [Cpd 25, 4-[[5-amino-1-(2-furanylcarbonyl)-1H-1,2,4-triazol-3-yl]amino]-benzenesulfonamide] | 19.5 nM | – | 64 nM |
| Cc1ccsc1C(=O)n1nc(Nc2ccc(S(=O)(=O)N3CCCCC3)cc2)nc1N [Cpd 24, 1-[(3-methyl-2-thienyl)carbonyl]-N^3-[4-(1-piperidinylsulfonyl)phenyl]-1H-1,2,4-triazole-3,5-diamine] | 282 nM | – | 67.4 nM |
| Cc1nnsc1C(=O)n1nc(Nc2ccc(S(N)(=O)=O)cc2)nc1N [Cpd 36, 4-[[5-amino-1-[(4-methyl-1,2,3-thiadiazol-5-yl)carbonyl]-1H-1,2,4-triazol-3-yl]amino]-benzenesulfonamide] | 1560 nM | – | 18600 nM |
| Nc1nc(Nc2ccc(S(N)(=O)=O)cc2)nn1C(=O)c1ccc(Br)s1 [Cpd 21, 4-[[5-amino-1-[(5-bromo-2-thienyl)carbonyl]-1H-1,2,4-triazol-3-yl]amino]-benzenesulfonamide] | 8.8 nM | – | 23 nM |

The next lines start with the values.

| IC50 (CDK1:Cyclin-B) | IC50 [1] | IC50 [2] | Structure (SMILES) |
| --- | --- | --- | --- |
| 109 nM | 413 nM | 86.9 nM | CCc1ccc(C(=O)n2nc(Nc3ccc(S(=O)(=O)N(C)C)cc3)nc2N)s1 [Cpd 86, 4-[[5-amino-1-[(5-ethyl-2-thienyl)carbonyl]-1H-1,2,4-triazol-3-yl]amino]-N,N-dimethyl-benzenesulfonamide] |
| 313 nM | ~1000 nM | 965 nM | Cc1ccc(F)c(C(=O)n2nc(Nc3ccc(S(=O)(=O)N(C)C)cc3)nc2N)c1F [Cpd 88, 4-[[5-amino-1-(2,6-difluoro-3-methylbenzoyl)-1H-1,2,4-triazol-3-yl]amino]-N,N-dimethyl-benzenesulfonamide] |
| 550 nM | 6100 nM | 14000 nM | Nc1nc(Nc2ccc(S(N)(=O)=O)cc2)nn1C(=O)c1c(F)ccc([N+](=O)[O-])c1F [Cpd 54, 4-[[5-amino-1-(2,6-difluoro-3-nitrobenzoyl)-1H-1,2,4-triazol-3-yl]amino]-benzenesulfonamide] |
| 150 nM | 16800 nM | 702 nM | CS(=O)(=O)Nc1ccc(Nc2nc(N)n(C(=O)c3c(F)cccc3F)n2)cc1 [Cpd 111] |
| > 1000 nM | > 1000 nM | > 1000 nM | Nc1nc(Nc2ccc(S(N)(=O)=O)cc2)nn1C(=O)c1ccc(C#Cc2ccccc2)s1 [Cpd 53, 4-[[5-amino-1-[[5-(phenylethynyl)-2-thienyl]carbonyl]-1H-1,2,4-triazol-3-yl]amino]-benzenesulfonamide] |
| 143 nM | 819 nM | 650 nM | Cc1ccc(F)c(C(=O)n2nc(Nc3ccc(-n4cnnc4)cc3)nc2N)c1F [Cpd 101, 1-(2,6-difluoro-3-methylbenzoyl)-N^3-[4-(4H-1,2,4-triazol-4-yl)phenyl]-1H-1,2,4-triazole-3,5-diamine] |
| 1370 nM | 7460 nM | 890 nM | Cc1ccc(F)c(C(=O)n2nc(Nc3ccc(S(=O)(=O)O)cc3)nc2N)c1F [Cpd 60, 4-[[5-amino-1-(2,6-difluoro-3-methylbenzoyl)-1H-1,2,4-triazol-3-yl]amino]-benzenesulfonic acid] |
| 2210 nM | – | > 10000 nM | Nc1nc(Nc2ccc(S(N)(=O)=O)cc2)n(C(=O)c2c(F)cccc2F)n1 [Cpd 122, 4-[[3-amino-1-(2,6-difluorobenzoyl)-1H-1,2,4-triazol-5-yl]amino]-benzenesulfonamide] |

Reference: patent US6924302B2, “Substituted triazole diamine derivatives as kinase inhibitors” (Ortho McNeil Pharmaceutical, Inc., priority 2000, dated 2005)
